Assay in all cases: NCI-60 cell line screen, 48 h
Test [1] concerns A498 renal.
In test [2] the test system is SR leukemia.
For test [3], the system named is RXF 393 renal.
Test [4] relates to PC-3 prostate.
In test [5] the test system is CAKI-1 renal.
In test [6] the test system is OVCAR-4 ovarian.
The subject of test [7] is HCT-15 colon.
For test [8], the system named is MCF7 breast.
The subject of test [9] is MDA-MB-435.
The test system of test [10] is OVCAR-8 ovarian.

Where “and” joins values, the source holds several entries; their conditions need not be identical. Identical values can stand only once.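 Growth conditions: 96-well plates. Treatment: test compound, 48 hours, 5 concentrations. Analysis: linear interpolation between bracketing concentrations; unreached endpoints set to highest concentration. GI50 = concentration required for 50% inhibition of growth. TGI marks complete inhibition of growth.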 Bounds are passed on as bounds.

Turning to `Cc1ccc([P+](Cc2ccccc2)(c2ccccc2)c2ccccc2)cc1`, the GI50 was 1.63 µM in test [1]; 2.66 µM in test [2]; 3.68 µM in test [3]; 1.53 µM in test [4]; 5.83 µM in test [5]; 2.62 µM in test [6]. The GI50 in test [7] was 19.5 µM; in [8] it was 1.92 µM; in test [9], 0.61 µM; in test [10], 1.74 µM. Further, the TGI in [1] is 7.15 µM; in test [2], 16.5 µM; in [3] it was 41.1 µM; in test [4], over 100 µM; in test [5], over 100 µM; in [6], over 100 µM. In addition, the TGI in test [7] is over 100 µM; in [8], over 100 µM; in [9], 3.42 µM; in [10] it was 11.3 µM.
For the compound `Cn1cc(C2=C(c3c4n(c5ccccc35)CCNC4)C(=O)NC2=O)c2ccccc21`, the GI50 in test [1] is 4.71 µM; in test [2], 3.73 µM; in test [3], 3.73 µM; in test [4], 7.02 µM; in [5], 5.85 µM; in [6] it was over 9.74 µM. Further, the GI50 in test [7] is 5.71 µM; in test [8] it was 4.78 µM; in test [9] it was 0.991 µM; in [10], over 16.9 µM. Also, the TGI is 14.3 µM in test [1]; over 25 µM in test [2]; 14.1 µM in [3]; over 25 µM in [4]; over 22.3 µM in test [5]; over 25 µM in [6]. In addition, the TGI in [7] is over 25 µM; in test [8] it was over 23.8 µM; in test [9] it was over 17.1 µM; in test [10] it was over 25 µM.
Regarding `O=C(CCCn1c2c(sc3ccccc32)c(=O)n2nnc(-c3ccccc3)c12)NCCc1cnc[nH]1`, the GI50 in test [1] was 1.41 µM; in test [2] it was 0.356 µM; in [3], 2.56 µM; in [4], 0.0603 µM; in test [6] it was 1.84 µM; in [7] it was 0.505 µM. In addition, the GI50 in test [8] was 1.1 µM; in test [9], 0.345 µM. The TGI is 2.85 µM in test [1]; 5.61 µM in test [2]; 5.25 µM in [3]; 2.21 µM in test [4]; 4.33 µM in [6]; 2.14 µM in [7]. The TGI in [8] was determined as 2.43 µM; in test [9], 1.87 µM; in [10], 2.99 µM.
On to `Cc1ccc(F)c(NC(=O)Nc2ccc(-c3cccc4[nH]nc(N)c34)cc2)c1`, for which the GI50 in [1] was 2.24 µM and 2.71 µM; in test [2], 2.62 µM and 1.87 µM; in test [3] it was 1.96 µM and 1.92 µM; in test [4] it was 4.18 µM and 4.54 µM; in [5] it was 2.83 µM and 3.85 µM; in test [6], 3.1 µM and 3.8 µM. The GI50 was 3.21 µM and 3.11 µM in test [7]; 2.29 µM and 2.07 µM in test [8]; 2.68 µM and 2.88 µM in test [9]; 3.25 µM and 3.08 µM in test [10]. For the same compound, the TGI in [1] was 7.02 µM and 9.3 µM; in test [2], 8.37 µM and 5.45 µM; in [3], 4.34 µM and 4.96 µM; in test [4], 17.7 µM and > 10 µM; in test [5], 10.1 µM and > 10 µM; in test [6] it was 17.1 µM and > 10 µM. Besides, the TGI was 11.2 µM and > 10 µM in test [7]; 8.4 µM and > 10 µM in test [8]; 11 µM and > 10 µM in test [9]; 18 µM and > 10 µM in test [10].
Consider `COC1=CC(c2ccc[nH]2)=N/C1=C\c1[nH]c(C)c(C(=O)CCC(=O)Oc2ccc3c(c2)CCC2C3CC[C@]3(C)[C@@H](O)CC[C@@H]23)c1C` (some centres not stated), for which the GI50 is 1.87 µM in test [1]; 0.643 µM in test [2]; 4.71 µM in test [3]; 3.8 µM in test [4]; 2.38 µM in test [5]; 5.02 µM in [6]. Besides, the GI50 was 1.29 µM in test [7], 0.917 µM in test [8], 3.25 µM in test [9] and 3.94 µM in [10]. Besides, the TGI in test [1] is 8.82 µM; in [2] it was 5.1 µM; in [3], 69.8 µM; in test [4], over 100 µM; in test [5], over 100 µM; in [6], over 100 µM. Moreover, the TGI in [7] is 4.18 µM; in test [8] it was over 100 µM; in test [9], over 100 µM; in test [10], over 100 µM.
Regarding `CC1=C/C=C/C(=O)O[C@@H]([C@H](C)[C@H](O)[C@@H](C)NC(=O)C(C)C)[C@H](C)/C=C/C(C)=C/[C@H]2C=CCC[C@@]2(C)\C=C\1`, the GI50 in [1] is 6.03 µM and 5.25 µM; in test [2], 0.41 µM and 0.191 µM; in [4], 0.654 µM and 0.223 µM; in test [6] it was 6.47 µM; in test [7], 0.231 µM and 0.275 µM; in test [8] it was 0.0746 µM and 0.0382 µM. The GI50 was 0.0335 µM and 0.0165 µM in test [9]; 3.17 µM and 0.989 µM in [10]. The TGI in [1] was 32.8 µM; in test [2], 5.58 µM; in [3], 8.69 µM; in [4] it was 13.2 µM; in test [6] it was 21.9 µM; in [7], 9.15 µM. For the same compound, the TGI was found to be 23.7 µM in test [8], 6.43 µM in [9] and 34.2 µM in test [10].
Regarding `CN1CC=C(c2cc(NC(=O)Nc3ccc(Oc4ccnc(NC(=O)C5CC5)c4)c(F)c3)cc(C(F)(F)F)c2)CC1`, the GI50 was 2.05 µM in test [1]; 0.152 µM in test [2]; 0.172 µM in [3]; 0.242 µM in [4]; 0.26 µM in test [6]; 1.08 µM in test [7]. The GI50 in test [8] is 0.153 µM; in [9] it was 0.429 µM; in [10], 0.238 µM. Moreover, the TGI came out at 3.9 µM in test [1]; 0.863 µM in test [2]; 0.411 µM in test [3]; 1.25 µM in test [4]; 2.35 µM in test [6]; 4.33 µM in test [7]. Besides, the TGI in test [8] came out at 0.693 µM; in [9], 1.17 µM; in test [10], 5.12 µM.
